Experimental findings from US11472846B2, “Compositions and methods for treating diseases by inhibiting exosome release” (priority 2016, dated 2022) are described below.

Format in all cases: cell-based, human
One experiment deals with MDA-MB-231 exosomes. The experiment is described as follows: Western blot of exosomal proteins (Alix, vimentin, mortalin), MDA-MB-231. The conditions noted are these: MDA-MB-231 cells, 48 hr treatment. On the procedure:
(§1) 7-7. Protein analysis by Western blotting. Exosomes were isolated from cell culture supernatants as described above. Protein concentrations were determined by measuring absorbance at 280 nm (Nanodrop 2000). Cultured cells were treated with PEG-SMR-Clu, SMR-CPP peptides, MKT-077, Omeprazole or DMA at 37° C. for 48 hr. To evaluate mortalin, vimentin and exosome expression, Western blot analysis was performed using anti-mortalin (Grp-75), anti-Vimentin and anti-Alix antibodies, respectively (FIG. 12).
(§2) Exosomes and cell lysates were prepared by incubating 5-10 min at 95° C. in sample buffer. The lysates were subjected to SDS-PAGE under reducing conditions (150 mM DTT) in 4-20% Criterion™ TGX™ precast gels (BioRad, Hercules, Calif.) and then transferred onto a nitrocellulose membrane (Bio-Rad, Hercules, Calif.). Nitrocellulose membranes were blocked with 5% skim milk (MedSupply, Atlanta, Ga.) in TBS containing 0.05% Tween 20 (TBST) for 1 h at room temperature. The membranes were treated with anti-mortalin (Grp-75) mAb or anti-α-tubulin mAb for cell lysates (FIG. 15, Panels A and B) or with anti-Alix and anti-vimentin or anti-mortalin for exosomes (FIG. 12), followed by peroxidase-conjugated goat anti-mouse IgG. Bands were developed with an ECL chemiluminescent substrate (Santa Cruz Biotechnology, Santa Cruz, Calif.) and exposed to an ImageQuant LAS 4000 imaging system (GE Healthcare, Piscataway, N.J. 08854).
A general note: Immunoblotting shows a protein as a band on a membrane.

Experiment [1] concerns MCF-7 breast cancer cells. Description: Exosome release by acetylcholinesterase (AchE) assay, MCF-7. The conditions noted are these: for average AChE concentration days 1 to 5: MCF-7 cells, five-day treatment. The method, then: 1-6. Exosome isolation and purification. Exosomes were isolated from breast cancer cells by differential centrifugation as previously described (Ali SA. et al., 2010). Untreated tumor cells were used as a control. Briefly, the above treated and untreated cell culture supernatants were centrifuged at 400×g for 10 minutes. The supernatants were transferred to a clear tube and centrifuged at 10,000×g for 30 minutes. The supernatants from the second spin were ultracentrifuged at 200,000×g for 2 hours to pellet exosomes. Finally, the exosome pellets were re-suspended with PBS and stored at 4° C. until used for analysis.
1-7. Exosome characterization by acetylcholinesterase (AchE) assay. Purified exosomes were quantitated by measurement of AchE as described (Ellman et al., 1961). Briefly, a 100 mM dithibionitrobenzoic (DTNB) solution was prepared for use as a stock color indicator, and a 28.9 mg/mL acetylthiocholine iodide in PBS solution was prepared as a stock substrate. The stock substrate stock can be stored at −20° C. up to one month, while the color indicator can be stored at 4° C. for two weeks. A working solution was prepared by mixing 10 mL of PBS with 200 μL of Substrate and 500 μl of DTNB. 50 μL of each exosome sample was transferred to 96 well microtitre plates, and a standard curve was prepared using AchE from 0.98 mU/mL to 2000 mU/mL. After 50 μL of standards were added into separate wells, 200 μL of the working solution was added to all wells. After 20 min incubation, AchE activity was measured at 450 nm using a SpectroMax M5 fluorimeter.
7-5. Exosome isolation and purification. Exosomes were isolated from breast cancer cells and leukemia cells using the ExoQuick-TC Exosome Precipitation Kit (System Biosciencences [SBI], Mountain View Calif.) or the miRCURY Exosome Isolation Kit (EXIQON, Woburn, Mass.) according to the manufacturer's instructions. Untreated tumor cells were used as a control. Briefly, treated and untreated cell culture supernatants (10 mL) were centrifuged at 3000×g for 15 minutes. The resulting supernatants were transferred to a clear tube, 2 mL of ExoQuick-TC buffer was added, mixed and incubated overnight at 4° C. Following the incubation, the sample contents were centrifuged at 1500×g for 30 minutes, the supernatants were aspirated off, the pellets were centrifuged at 1500×g for 5 minutes and any further traces of supernatant were removed (SBI). Alternatively, treated and untreated cell culture supernatants were centrifuged at 10,000×g for 5 minutes to remove cell debris, supernatants (10 ml) were transferred into new tubes, and 4 mL of precipitation buffer (EXIQON) was added, and the contents were mixed and incubated at 4° C. overnight. Following the incubation, the sample contents were centrifuged at 10,000×g for 30 minutes (EXIQON). Exosome-containing pellets were re-suspended in PBS and stored at 4° C. or −80° C.
7-6. Exosome characterization by acetylcholinesterase (AchE) assay. Purified exosomes were quantitated by measurement of AchE as previously described (Huang et al., Oncotarget, 2017. 8(7): pp. 11302-11315). Briefly, 100 mM dithibionitrobenzoic (DTNB) was prepared as a stock color indicator, and prepared a stock substrate containing 28.9 mg/mL of acetylthiocholine iodide in PBS. Substrate stock can be stored at −20° C. up to one month; the stock color indicator can be stored at 4° C. for two weeks. A working solution was prepared by mixing 10 mL of PBS with 200 μL of substrate and 500 μl of DTNB. 50 μL of each exosome sample was transferred to a 96 well microtitre plate, and a standard curve for AchE concentrations was prepared using AchE from 0.98 mU/mL to 2000 mU/mL. After 50 μL of standards were added into separate wells, 200 μL of the working solution was added to each well. After a 20 min incubation, AchE activity was measured at 450 nm using a SpectroMax M5 fluorometer (FIG. 11).

The subject of experiment [2] is exosomes from MCF-7 cells. The experiment is described as follows: Western blot of exosomal proteins (Alix, vimentin, mortalin), MCF-7. The note with it: 48 hr treatment, vs negative controls. The method, then: as §1, §2
For the next experiment, the system named is K562 exosomes. The experiment is described as follows: Western blot of exosomal proteins (Alix, vimentin, mortalin), K562. The note with it: K562 cells, 48 hr treatment. The method, then:
as §1, §2

For the next experiment, the system named is MDA-MB-231 cells. Description: Complement-mediated cell cytotoxicity assay (trypan blue), MDA-MB-231. The note with it: for cell death under complement-positive conditions: 280 nM PEG-SMRwt-Clu or 560 nM SMRwt-CPP 60 min, then anti-CXCR4 antibody and NHS 60 min; for cell death under complement-negative conditions: 280 nM PEG-SMRwt-Clu or 560 nM SMRwt-CPP, 60 min. On the procedure:
7-9. Complement-mediated cell cytotoxicity assay. Complement-mediated cell cytotoxicity assays were performed as previously described (Reiter et al., Mol Immunol. (1992) 29(6): p. 771-81). Briefly, MCF-7, MDA-MB-231 and K562 cells were either mock-transfected or transfected with mortalin siRNA. […] or SMRwt-CPP peptide or SMRmut-CPP peptide alone, or treated with SMR peptide combined with complement from normal human serum (NHS) or heat-inactivated normal human serum (NIS) for 60 min at 37° C. Percentage of cells lysed were determined by a trypan blue exclusion assay using the TC10™ Automated Cell Counter (Bio-Rad, Richmond Calif.). (FIG. 14, FIG. 15, Panel D).

VGFPVAAVGFPVGRKKRRQRRRPPQ [SMRwt-CPP]: in the experiment with MDA-MB-231 exosomes, the “Alix expression in exosomes” value is “significantly decreased”, the “Mortalin expression in exosomes” value was “significantly decreased” and the “Vimentin expression in exosomes” value is on record as “significantly decreased”. Besides, the “average AChE concentration days 1 to 5” value in experiment [1] turned out to be 22 mU/mL. Besides, in experiment [2], the “Alix expression in exosomes” value is reported as “significantly decreased”, the “Mortalin expression in exosomes” value is recorded as “no significant changes” and the “Vimentin expression in exosomes” value is “significantly decreased”. In the experiment on K562 exosomes, the “Alix expression in exosomes” value was “significantly decreased” and the “Mortalin expression in exosomes” value is reported as “significantly decreased”. Also, in the experiment with MDA-MB-231 cells, the “cell death under complement-positive conditions” value is on record as 9% and the “cell death under complement-negative conditions” value is 3.6%.

“NXNVGFPVAAVGFPVHPLSKHPYWSQP (SEQ ID NO: 37) [PEG-SMRwt-Clu]”: in the experiment with MDA-MB-231 exosomes, the “Alix expression in exosomes” value is “significantly decreased”, the “Mortalin expression in exosomes” value is listed as “significantly decreased” and the “Vimentin expression in exosomes” value was “significantly decreased”. For the same sequence, the “AchE activity in exosomes” value in experiment [1] (MCF-7 cells treated 48 hr, control exosomes 113.49 mU/mL) is 41.95 mU/mL. For the same sequence, in experiment [1], the “average AChE concentration days 1 to 5” value is 31 mU/mL. Further, in experiment [2], the “Alix expression in exosomes” value was “significantly decreased”, the “Mortalin expression in exosomes” value was “significantly decreased” and the “Vimentin expression in exosomes” value was “significantly decreased”. In addition, in the experiment on K562 exosomes, the “Alix expression in exosomes” value is given as “significantly decreased” and the “Mortalin expression in exosomes” value was “significantly decreased”. In the experiment on MDA-MB-231 cells, the “cell death under complement-positive conditions” value worked out at 76% and the “cell death under complement-negative conditions” value was found to be 3.6%.
